In paper PMC10487316, “A high‐throughput microfluidic mechanoporation platform to enable intracellular delivery of cyclic peptides in cell‐based assays” (Bioengineering & Translational Medicine, 2023):
Where a SMILES comes first, the peptide text is derived from it. Bridges are numbered along the chain shown (N, C = ends). [ ]: non-standard residue; d: D form. dPhe(4-CF3) = N[C@H](Cc1ccc(C(F)(F)F)cc1)C(=O)O; dTrp(6-F) = N[C@H](Cc1c[nH]c2cc(F)ccc12)C(=O)O; R5 = C=CCCC[C@@](C)(N)C(=O)O; S5 = C=CCCC[C@](C)(N)C(=O)O

Legend:
[1] = target: T1, MDM2 (1–125) protein (Homo sapiens, UniProt Q00987); experiment: MDM2 binding assay (fluorescence anisotropy competition); conditions: competition vs 50 nM FAM-labeled 12/1 peptide, 250 nM MDM2; heat map of Figure 5a
T1 construct: made in house
Procedure: MDM2 protein generation and binding studies were performed as described.[17] […] The competing molecules were then titrated against the complex of the FAM‐labeled peptide and protein. Curve‐fitting was carried out using Prism 4.0 (GraphPad) to determine K D values. Readings were carried out with an Envision Multilabel Reader (PerkinElmer). […] All titrations were carried out in triplicate.

[2] = system: CellSensor p53RE-bla HCT116 cell line (p53 response element reporter); experiment: HCT116 p53 β-lactamase reporter gene functional assay; type: cell-based, human; conditions: 10 μM peptide; unprocessed vs DμVS-processed cells
Procedure: The CellSensor™ p53RE‐bla HCT116 cell line (K1640, Thermo Scientific) was used for functional characterization of p53 pathway activation by DμVS‐delivered peptides. Assay was performed similarly to how previously described.[17] These cells harbor a stable integration of a β‐lactamase reporter gene under control of the p53 response element. Cells were maintained in McCoy's 5A medium (16600‐082, Invitrogen) with 10% dialyzed FBS (26400‐036, Invitrogen), blasticidin (R210‐01, Invitrogen), and penicillin/streptomycin according to the manufacturer's protocol. Peptides were synthesized as previously described.[16], [17] To set up the assay, peptides were first pre‐plated in assay medium (Opti‐MEM supplemented with 0.1 mM non‐essential amino acids [11140‐050, Invitrogen], 1 mM sodium pyruvate [11360‐070, Invitrogen], and penicillin/streptomycin) without FBS on 384‐well plates (Corning 3764) or 96‐well plates (Corning 3603) using a HP D300E digital dispenser (20 μl 384‐well, 50 μl 96‐well). Maximum DMSO concentration used was 0.3% v/v. Cells were washed, resuspended with 0.05% v/v trypsin, spun down for 5 min at 300× g, and resuspended in PBS. Cells were 70‐μm strained and then brought to a final cell density of 3 × 10^6 cells/ml in PBS. Cell suspension was connected to 15 mL P‐CAP of the DμVS system, and 2 mL were used to prime the system. DμVS process was then initiated at 120 psi and 20 μL (384‐well) or 50 μL (96‐well) were dispensed to microplate in wells that were pre‐defined in the Telios software and pre‐loaded with peptides 2× in assay medium. Unprocessed cells were added to the microplate in parallel. After DμVS processing/mixing with peptide, cells were incubated at 37°C for 4 h. β‐lactamase activity was detected using the ToxBLAzer loading kit (K1095, Invitrogen) according to the manufacturer's protocol. Plates were measured using the PHERAstar FSX microplate reader with a LiveBlazer optic module (1400‐G3M‐FI‐410‐530‐460, BMG Labtech). Maximum p53 activity was defined as the β‐lactamase activity induced by 30 μM MP‐081 (meanpos). Percent activation of individual samples (S) was calculated using the following equation, where meanveh represents the mean of vehicle controls: % activation=S−meanveh/meanpos−meanveh×100
Z‐factors were calculated using the formula: Z^′=1−3σpos+3σveh/meanpos−meanveh
Meanpos and σ pos represent the mean and standard deviation, respectively, of the raw ratiometric values for 30 μM MP‐081 and meanveh and σ veh represent the mean and standard deviation of the vehicle controls. Dose–response data EC50 values were determined using the “[Agonist] versus response—Variable slope (four parameters)” algorithm in GraphPad Prism. Single concentration data for expanded peptide set were analyzed using unpaired T‐tests with false discovery rate (FDR, 1.00%) multiple comparisons correction using the two‐stage step‐up (Benjamini, Krieger, and Yekutieli) method. Data were accumulated from at least five independent experimental runs.

T1 sequence (Q00987 1-125): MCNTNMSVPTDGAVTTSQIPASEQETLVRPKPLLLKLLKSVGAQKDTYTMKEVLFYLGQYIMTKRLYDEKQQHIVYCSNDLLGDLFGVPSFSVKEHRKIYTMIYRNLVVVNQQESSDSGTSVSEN

Kd [1]: 1.7 nM
SMILES: CC(C)C[C@H]1NC(=O)[C@@H](CC(C)C)NC(=O)[C@@](C)(NC(=O)[C@@H](CCC(=O)O)NC(=O)[C@@H](Cc2ccc(C(F)(F)F)cc2)NC(=O)[C@@H](CC(N)=O)NC(=O)[C@@H](C)NC(=O)[C@@H](Cc2ccc(O)cc2)NC(=O)[C@@H](Cc2c[nH]c3cc(F)ccc23)NC(=O)[C@@H](C)NC(=O)[C@H](N)[C@H](C)O)CCCC=CCCC[C@](C)(C(N)=O)NC1=O [MP-313, H-DThr-DAla-DTrp(6-F)-DTyr-DAla-DAsn-DPhe(4-CF3)-DGlu-S5*-DLeu-DLeu-R5*-NH2] (H-[dT][dA][dTrp(6-F)][dY][dA][dN][dPhe(4-CF3)][dE][S5][dL][dL][R5]-NH2; staple 9-12)
p53 activation at 10 μM with and without DμVS [2]: no p53 reporter activity improvement
